Results on two compounds are retold here after patent US20230067926A1, “SYSTEMS AND METHODS FOR MONITORING PLATELET ACTIVATION” (The Regents of the University of Michigan, priority 2021, published 2023).

A word on the IC50: it is the point on the concentration scale where inhibition reaches its midpoint.

In test [1] the test system is activated platelets in whole blood. Description: PDA liposome-9F9 microarray detection of activated platelets in whole blood. It is filed as cell-based, human.
Description: To fabricate the PDA liposome Microarray, the liposomes were covalently immobilized on amine-modified glass slides through the amine-epoxy chemistry. 0.5 mM PDA-epoxy liposome solution was spotted on amine-coated glass slides with a manual microarrayer (VP 475, V&P scientific, INC) and was incubated at 5° C. for 24 hrs to prevent fast drying of the spotted solution. After removing the unbound liposomes by rinsing with 5 mM of pH 8 HEPES buffer, the PDA liposome-spotted slides were incubated with 0.06 mg/ml of 9F9 antibody in 5 mM of pH 8 HEPES buffer for 1 hr. After removing the unbound antibodies by rinsing with 5 mM of pH 8 HEPES buffer. […]
Detection of Activated Platelet with PDA Liposome Microarray. […] After 20 mins of incubation, fluorescence microscope images were obtained on Olympus BX 71 microscope equipped with a mercury lamp and a cut-off filter of 540 nm excitation and 600 nm emission. For fluorescence signal intensity measurement, the fabricated PDA liposome-9F9 microarray was placed on top of a 96-well plate and the combined substrates were inserted into a plate reader. Fluorescence emission intensities at 634 nm of total 120 microarray spots from three different devices were individually measured by using the excitation wavelength of 548 nm. […]
Test [2] deals with collagen and epinephrine stimulated human platelets. Description: cells. As to conditions: Platelet, read-out: IC50 of inhibition of collagen-stimulated platelet activation.
Description: Fluorescence-activated Cell Sorting Analysis. […] Collagen (40 μg/ml) was then added (4 μl) and incubated for 2 min at room temperature in all tubes. Platelet activation was measured by using 20 μl of the anti-9F9 antibody-FITC and 10 μl of the constitutive platelet marker, anti-CD61-PE (Phycierythrin). As a control for the anti-9F9 antibody, 10 μl of the isotype control, anti-mouse IgG1-FITC, was used with 10 μl of anti-CD61-PE in a separate tube. The antibodies were incubated at room temperature in the dark for 15 minutes. After the incubation, 700 μl of 1% formalin/dPBS was added to each tube and stored at 4° C. for up to 24 hrs post fixing until ready to run the fluorescence-activated cell sorting (FACS) analysis on a FACSCalibur flow cytometer (Beckton Dickenson San Jose, Calif.). CellQuest software (Beckton Dickenson San Jose, Calif.) was employed for the data analysis.
Cell populations were identified for data collection by their log forward scatter (FSC) and log side scatter (SSC) light profiles. […] Mean fluorescence intensity (MFI) of the anti-9F9 immunostaining was quantitated by a FITC (FL1) versus PE (FL2) log plot analysis. […] The adjusted WI was expressed as the geometric mean channel fluorescence minus the appropriate isotype control. The platelet reactivity index (PRI) was calculated by the following equation: […]

Take collagen: in test [1] (whole blood samples with and without 40 mg/ml of collagen, 20-min incubation (FIG. 2)), the “red fluorescence intensity with added collagen relative to device without it” value was found to be 2.8 times. Regarding `CCCCS(=O)(=O)N[C@@H](Cc1ccc(OCCCCC2CCNCC2)cc1)C(=O)O` [Tirofiban], the “limit of detection of Tirofiban in the sample (fluorescence signal decrease)” value in test [1] (whole blood with collagen, 20 mins incubation, PDA microarray fluorescence (FIG. 3)) came out at 0.16 µM. The IC50 in test [2] was around 1.5 pM.
